In patent US12527779B2, “Prostaglandin E2 (PGE2) EP4 receptor antagonists” (Domain Therapeutics, priority 2019, dated 2026):
Where a name gives a salt, the structure may show the parent alone.

Biological target: T1, human EP4 (hEP4) receptor (Homo sapiens, UniProt P35408)
T1 construct: expressed in transfected cells; host or cells: HEK-293 T cells, transient co-transfection with polyethylenimine
Assay: In vitro human EP4 functional antagonist activity using BRET biosensors (cAMP EPAC biosensor, TCS2510 stimulation)
Type: cell-based
Settings: antagonist activity vs EC60 TCS2510, hEP4 in HEK-293 T cells
Method: Examples of the present invention were tested successively for their agonist and antagonist activities on human EP4 (hEP4) receptor transiently over-expressed in HEK-293 T cells. […] The assay used to measure compound activity is based on the BRET technology. The unimolecular cAMP biosensor used to detect intracellular cAMP levels following GPCR stimulation consists of the EPAC protein fused to N- and C-terminal of Luciferase and GFP respectively.
Cell Culture and Transfection: HEK-293 T cells are maintained in Dulbecco's Modified Eagle's Medium supplemented with 10% Foetal Calf Serum, 1% Penicillin/Streptomycin at 37° C./5% CO2. Cells are co-transfected using polyethylenimine (25 kDa linear) with two DNA plasmids encoding hEP4, EPAC fused to luciferase (BRET donor) and to GFP (BRET acceptor). After transfection, cells are cultured (40,000 cells per well) for 48 h at 37° C./5% CO2.
BRET assay: Receptor activity is detected by changes in BRET signal. On the day of the assay, cells are rinsed and incubated in assay buffer (1.8 mM CaCl2, 1 mM MgCl2, 2.7 mM KCl, 137 mM NaCl, 0.4 mM NaH2PO4, 5.5 mM D-Glucose, 11.9 mM NaHCO3, 25 mM Hepes). Then, plates are equilibrated 1 h at 22° C. before adding compounds. Compounds and luciferase substrate are added to the cells using an automated device (Freedom Evo®, Tecan) and BRET readings are collected on EnVision (PerkinElmer) with specific filters (410 nm BW 80 nm, 515 nm BW 30 nm). Agonist and antagonist activities of compounds are consecutively evaluated on the same cell plate. Agonist activity is first measured after 5 min incubation with compound alone on the cells. Then, cells are stimulated by an EC60 TCS2510 concentration and luminescence is recorded for additional 10 min. EC60 TCS2510 concentration is the concentration giving 60% of the maximal TCS2510 response. Agonist or antagonist activities are evaluated in comparison to basal signals evoked by assay buffer or EC60 TCS2510 alone, respectively.
For IC50 determination, a dose-response test is performed using 10 concentrations (ranging over 4.5 logs) of each compound. Dose-response curves are fitted using the sigmoidal dose-response (variable slope) analysis in GraphPad Prism software (GraphPad Software) and IC50 of antagonist activity is calculated. Dose-response experiments are performed in duplicate, in two independent experiments. IC50 values are categorized as following: A: IC50<0.1 μM; B: IC50<1 μM.

T1 sequence (P35408 whole entry): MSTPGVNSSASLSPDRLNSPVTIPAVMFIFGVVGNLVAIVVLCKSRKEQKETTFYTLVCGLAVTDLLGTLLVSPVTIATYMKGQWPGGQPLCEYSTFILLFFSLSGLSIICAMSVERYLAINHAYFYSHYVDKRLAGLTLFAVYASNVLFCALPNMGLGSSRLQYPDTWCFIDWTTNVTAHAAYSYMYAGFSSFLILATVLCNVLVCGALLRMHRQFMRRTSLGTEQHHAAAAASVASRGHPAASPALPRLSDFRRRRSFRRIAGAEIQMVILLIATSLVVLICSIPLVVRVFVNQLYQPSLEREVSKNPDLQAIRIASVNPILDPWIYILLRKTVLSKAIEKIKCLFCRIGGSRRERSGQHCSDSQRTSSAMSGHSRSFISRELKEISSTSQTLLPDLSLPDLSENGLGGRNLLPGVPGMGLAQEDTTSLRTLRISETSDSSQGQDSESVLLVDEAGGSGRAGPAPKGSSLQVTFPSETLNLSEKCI

C[C@H](NC(=O)C1(NCCOc2ccccc2)CCOC(C)(C)C1)c1ccc(C(=O)O)cc1 (single isomer, unassigned) [Example 72, hydrochloride] and C[C@H](NC(=O)C1(NCCOc2ccccc2)CCOCC1)c1ccc(C(=O)O)cc1 [Example 1, 4-[(1S)-1-[[4-(2-Phenoxyethylamino)tetrahydropyran-4-carbonyl]amino]ethyl]benzoic acid, hydrochloride] cannot be ordered by IC50: less than 100 nM for the first, less than 100 nM for the second.

C[C@H](NC(=O)C1(N(C)CCOc2ccccc2)CCOCC1)c1ccc(C(=O)O)cc1 [Example 2, 4-[(1S)-1-[[4-[Methyl(2-phenoxyethyl)amino]tetrahydropyran-4-carbonyl]amino]ethyl]benzoic acid, hydrochloride] and C[C@H](NC(=O)C1(N(C)CCOc2ccccc2)CCOCC1)c1ccc(C(N)=O)cc1 [Example 3, N-[(1S)-1-(4-Carbamoylphenyl)ethyl]-4-[methyl(2-phenoxyethyl)amino]tetrahydropyran-4-carboxamide] cannot be ordered by IC50: less than 100 nM for the first, less than 1000 nM for the second.

CNC(=O)c1ccc([C@H](C)NC(=O)C2(N(C)CCOc3ccccc3)CCOCC2)cc1 [Example 4, N-[(1S)-1-[4-(Methylcarbamoyl)phenyl]ethyl]-4-[methyl(2-phenoxyethyl)amino]tetrahydropyran-4-carboxamide] and C[C@H](NC(=O)C1(N(C)CCOc2ccccc2)CCOCC1)c1ccc(C(=O)N(C)C)cc1 [Example 5, N-[(1S)-1-[4-(Dimethylcarbamoyl)phenyl]ethyl]-4-[methyl(2-phenoxyethyl)amino]tetrahydropyran-4-carboxamide] cannot be ordered by IC50: less than 1000 nM for the first, less than 1000 nM for the second.

C[C@H](NC(=O)C1(NCCOc2cccc(Cl)c2)CCOCC1)c1ccc(C(=O)O)cc1 [Example 8, 4-[(1S)-1-[[4-[2-(3-Chlorophenoxy)ethylamino]tetrahydropyran-4-carbonyl]amino]ethyl]benzoic acid, hydrochloride] and Cc1cccc(OCCNC2(C(=O)N[C@@H](C)c3ccc(C(=O)O)cc3)CCOCC2)c1 [Example 14, 4-[(1S)-1-[[4-[2-(3-Methylphenoxy)ethylamino]tetrahydropyran-4-carbonyl]amino]ethyl]benzoic acid, hydrochloride] cannot be ordered by IC50: less than 100 nM for the first, less than 100 nM for the second.

C[C@H](NC(=O)C1(N(C)CCOc2cccc(Cl)c2)CCOCC1)c1ccc(C(=O)O)cc1 [Example 9, 4-[(1S)-1-[[4-[2-(3-Chlorophenoxy)ethyl-methyl-amino]tetrahydropyran-4-carbonyl]amino]ethyl]benzoic acid, hydrochloride] and CCN(CCOc1cccc(Cl)c1)C1(C(=O)N[C@@H](C)c2ccc(C(=O)O)cc2)CCOCC1 [Example 10, 4-[(1S)-1-[[4-[2-(3-Chlorophenoxy)ethyl-ethyl-amino]tetrahydropyran-4-carbonyl]amino]ethyl]benzoic acid, hydrochloride] cannot be ordered by IC50: less than 100 nM for the first, less than 100 nM for the second.

C[C@H](NC(=O)C1(NCCOc2ccc(Cl)cc2)CCOCC1)c1ccc(C(=O)O)cc1 [Example 11, 4-[(1S)-1-[[4-[2-(4-Chlorophenoxy)ethylamino]tetrahydropyran-4-carbonyl]amino]ethyl]benzoic acid, hydrochloride] and C[C@H](NC(=O)C1(NCCOc2ccc(Cl)c(Cl)c2)CCOCC1)c1ccc(C(=O)O)cc1 [Example 17, 4-[(1S)-1-[[4-[2-(3,4-Dichlorophenoxy)ethylamino]tetrahydropyran-4-carbonyl]amino]ethyl]benzoic acid, hydrochloride] cannot be ordered by IC50: less than 1000 nM for the first, less than 1000 nM for the second.

C[C@H](NC(=O)C1(NCCOc2cccc(C(F)(F)F)c2)CCOCC1)c1ccc(C(=O)O)cc1 [Example 12, 4-[(1S)-1-[[4-[2-[3-(Trifluoromethyl)phenoxy]ethylamino]tetrahydropyran-4-carbonyl]amino]ethyl]benzoic acid] and COc1cccc(OCCNC2(C(=O)N[C@@H](C)c3ccc(C(=O)O)cc3)CCOCC2)c1 [Example 13, 4-[(1S)-1-[[4-[2-[3-Methoxyphenoxy]ethylamino]tetrahydropyran-4-carbonyl]amino]ethyl]benzoic acid, hydrochloride] cannot be ordered by IC50: less than 100 nM for the first, less than 100 nM for the second.

C[C@H](NC(=O)C1(NCCOc2cc(F)cc(F)c2)CCOCC1)c1ccc(C(=O)O)cc1 [Example 16, 4-[(1S)-1-[[4-[2-(3,5-Difluorophenoxy)ethylamino]tetrahydropyran-4-carbonyl]amino]ethyl]benzoic acid, hydrochloride] and C[C@H](NC(=O)C1(NCc2cccc(F)c2)CCOCC1)c1ccc(C(=O)O)cc1 [Example 20, 4-[(1S)-1-[[4-[(3-Fluorophenyl)methylamino]tetrahydropyran-4-carbonyl]amino]ethyl]benzoic acid, hydrochloride] cannot be ordered by IC50: less than 100 nM for the first, less than 1000 nM for the second.

C[C@H](NC(=O)C1(NCCCc2ccccc2)CCOCC1)c1ccc(C(=O)O)cc1 [Example 18, 4-[(1S)-1-[[4-(3-Phenylpropylamino)tetrahydropyran-4-carbonyl]amino]ethyl]benzoic acid, hydrochloride] and O=C(O)c1ccc(C2(NC(=O)C3(NCCOc4ccccc4)CCOCC3)CC2)cc1 [Example 24, 4-[1-[[4-(2-Phenoxyethylamino)tetrahydropyran-4-carbonyl]amino]cyclopropyl]benzoic acid, hydrochloride] cannot be ordered by IC50: less than 1000 nM for the first, less than 1000 nM for the second.

C[C@H](NC(=O)C1(NCC2CCCCC2)CCOCC1)c1ccc(C(=O)O)cc1 [Example 21, 4-[(1S)-1-[[4-(Cyclohexylmethylamino)tetrahydropyran-4-carbonyl]amino]ethyl]benzoic acid, hydrochloride] and O=C(O)c1ccc(C2(NC(=O)C3(NCCOc4cccc(Cl)c4)CCOCC3)CC2)cc1 [Example 28, 4-[1-[[4-[2-(3-Chlorophenoxy)ethylamino]tetrahydropyran-4-carbonyl]amino]cyclopropyl]benzoic acid, hydrochloride] cannot be ordered by IC50: less than 1000 nM for the first, less than 100 nM for the second.

CCCN(CCOc1ccccc1)C1(C(=O)NC2(c3ccc(C(=O)O)cc3)CC2)CCOCC1 [Example 26, 4-[1-[[4-[Propyl(2-phenoxyethyl)amino]tetrahydropyran-4-carbonyl]amino]cyclopropyl]benzoic acid, hydrochloride] and O=C(O)c1ccc(C2(NC(=O)C3(N(CCOc4ccccc4)CC4CC4)CCOCC3)CC2)cc1 [Example 27, 4-[1-[[4-[Cyclopropylmethyl(2-phenoxyethyl)amino]tetrahydropyran-4-carbonyl]amino]cyclopropyl]benzoic acid, hydrochloride] cannot be ordered by IC50: less than 1000 nM for the first, less than 1000 nM for the second.

CN(CCOc1cccc(Cl)c1)C1(C(=O)NC2(c3ccc(C(=O)O)cc3)CC2)CCOCC1 [Example 29, 4-[1-[[4-[2-(3-Chlorophenoxy)ethyl-methyl-amino]tetrahydropyran-4-carbonyl]amino]cyclopropyl]benzoic acid, hydrochloride] and CN(CCOc1cccc(F)c1)C1(C(=O)NC2(c3ccc(C(=O)O)cc3)CC2)CCOCC1 [Example 32, 4-[1-[[4-[2-(3-Fluorophenoxy)ethyl-methyl-amino]tetrahydropyran-4-carbonyl]amino]cyclopropyl]benzoic acid, hydrochloride] cannot be ordered by IC50: less than 100 nM for the first, less than 100 nM for the second.

CN(CCOc1ccccc1Cl)C1(C(=O)NC2(c3ccc(C(=O)O)cc3)CC2)CCOCC1 [Example 30, 4-[1-[[4-[2-(2-Chlorophenoxy)ethyl-methyl-amino]tetrahydropyran-4-carbonyl]amino]cyclopropyl]benzoic acid, hydrochloride] and CN(CCOc1ccccc1F)C1(C(=O)NC2(c3ccc(C(=O)O)cc3)CC2)CCOCC1 [Example 33, 4-[1-[[4-[2-(2-Fluorophenoxy)ethyl-methyl-amino]tetrahydropyran-4-carbonyl]amino]cyclopropyl]benzoic acid, hydrochloride] cannot be ordered by IC50: less than 100 nM for the first, less than 100 nM for the second.

CN(CCOc1ccc(Cl)cc1)C1(C(=O)NC2(c3ccc(C(=O)O)cc3)CC2)CCOCC1 [Example 31, 4-[1-[[4-[2-(4-Chlorophenoxy)ethyl-methyl-amino]tetrahydropyran-4-carbonyl]amino]cyclopropyl]benzoic acid, hydrochloride] and CN(CCOc1ccc(F)cc1)C1(C(=O)NC2(c3ccc(C(=O)O)cc3)CC2)CCOCC1 [Example 34, 4-[1-[[4-[2-(4-Fluorophenoxy)ethyl-methyl-amino]tetrahydropyran-4-carbonyl]amino]cyclopropyl]benzoic acid, hydrochloride] cannot be ordered by IC50: less than 1000 nM for the first, less than 100 nM for the second.
